Data reported in US9737505B2, “Prodrug of 1,1′-(1,6-dioxo-1,6-hexanediyl)bis-D-proline” (GlaxoSmithKline Intellectual Property Development Limited, priority 2014, dated 2017).
Like-named read-outs stand apart in the source and are kept apart here.

Legend:
CYP1A2 = target: T1, CYP1A2 (Homo sapiens, UniProt P05177); assay: Cytochrome p450 inhibition assay (bactosomes, fluorogenic substrate ER); assay type: biochemical; conditions: recombinant human CYP (Cypex bactosomes)
T1 construct: purchased Cypex; host or cells: bactosomes (bacterial membranes)
T1 sequence (P05177 1-516): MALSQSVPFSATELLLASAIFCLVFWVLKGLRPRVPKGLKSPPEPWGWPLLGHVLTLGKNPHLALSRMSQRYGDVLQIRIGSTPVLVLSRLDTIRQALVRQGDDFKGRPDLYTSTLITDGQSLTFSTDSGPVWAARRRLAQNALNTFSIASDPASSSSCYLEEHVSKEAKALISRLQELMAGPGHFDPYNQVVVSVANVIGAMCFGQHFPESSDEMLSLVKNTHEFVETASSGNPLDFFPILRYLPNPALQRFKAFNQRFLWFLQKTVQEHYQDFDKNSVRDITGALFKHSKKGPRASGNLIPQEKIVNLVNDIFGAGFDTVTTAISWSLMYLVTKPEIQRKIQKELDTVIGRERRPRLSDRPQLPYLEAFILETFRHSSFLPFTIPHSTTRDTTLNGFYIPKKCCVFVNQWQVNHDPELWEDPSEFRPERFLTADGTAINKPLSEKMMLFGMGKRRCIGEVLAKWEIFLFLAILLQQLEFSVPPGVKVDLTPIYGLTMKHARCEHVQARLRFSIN
Experimental: (§1) The assay was designed to evaluate inhibition on cytochrome P450 (CYP) 3A4, 2C9, 2C19, 1A2 and 2D6 enzymes from bactosomes source using fluorogenic substrates. Compound (compound of Formula (I) or Comparator Compound) was dissolved in methanol at 1.65 mM. Daughter solutions were prepared in methanol at 660, 264, 106, 42, 17, 6.8, 2.7, 1.1 and 0.43 μM. NADPH cofactor was prepared with Glucose-6-phosphate (7.8 mg), Glucose-6-phosphate dehydrogenase (6 units), NADP (1.7 mg) per 1 mL in NaHCO3 2%. Substrate preparation was as follows: • 7-Methoxy-4-triFluoromethyl Coumarin-3-Acetic acid ethyl ester (FCA): 12.5 mM in acetonitrile • EthoxyResorufin (ER): 0.05 mM in acetonitrile • 4-MethylaminoMethyl-7-Methoxy Coumarin (MMC): 2.5 mM in methanol • 3-Butyryl-7Methoxy Coumarin (BMC): 2.5 mM in DMSO • 7-BenzyloxyQuinoline (7BQ): 2.5 mM in acetonitrile • DiEthoxyFluorescein (DEF): 0.1 mM in acetonitrile Bactosomes (Cypex source) at the concentration of 10 mg of protein per ml were diluted in phosphate buffer 50 mM pH7.4: • 0.33 ml of bactosomes CYP2C9 with 23.8 ml of buffer and 0.11 ml of FCA • 0.33 ml of bactosomes CYP1A2 with 23.6 ml of buffer and 0.275 ml of ER • 0.33 ml of bactosomes CYP2D6 with 23.8 ml of buffer and 0.11 ml of MMC • 0.33 ml of bactosomes CYP2C19 with 23.8 ml of buffer and 0.11 ml of BMC • 0.33 ml of bactosomes CYP3[…] with 23.6 ml of buffer and 0.275 ml of 7BQ • 0.33 ml of bactosomes CYP3[…] with 23.6 ml of buffer and 0.275 ml of DEF Pre-Incubation consisted in mixing 5 μl of compound solution with 220 μl diluted bactosomes and warming it at 37° C. for 10 min. Incubation was started with the addition of 25 μl of NADPH. […]

[1] = Intestinal microsomal stability; assay type: in vitro ADME; conditions: 37° C., even after 60 minutes
Experimental: (§2) The assay was designed for determining stability of compound in microsomal matrix. Compound (Compound of Formula (I)) was dissolved in DMSO at 1 mg/ml. Daughter solution was prepared in methanol/water (50/50) at 30.3 ng/ml. Microsomes (from Xenotech) were diluted at 0.625 mg proteins per ml in phosphate buffer 50 mM pH 7.4.
Pre-Incubation consisted of warming microsomal solution 395 μl with 100 μl NaHCO3 (2%) at 37° C. for 7 min. Incubation was started with the addition of 5 μl of daughter solution. […]
(§3) After 10 min centrifugation at 4000 rpm, 2 μl of samples were injected into the liquid chromatography system and eluted on a Ascentis C18 column (50×2.1 mm id, 2.7 μm) with 0.1% formic acid in water (A) and 0.1% formic acid in acetonitrile (B), using the following 2 minute elution gradient: 5 to 95% B over 1.2 min, 95% B over 0.6 min and 0.1 min for re-equilibrate column, at 0.5 mL/min at 50° C.
Samples were analysed by Mass Spectrometry with an electrospray source, in positive mode and with following mass transitions: • Compound of Formula (I): 657 to 384 • Monoester of CPHPC: 499 to 226 • CPHPC: 341 to 226
Controls were made to calculate percentage of disappearance of parent but also appearance of suspected metabolite, i.e. monoester and diacidic form.

CYP3A4 = target: T2, CYP3A4 (Homo sapiens, UniProt P08684); assay: Cytochrome p450 inhibition assay (bactosomes, fluorogenic substrates 7BQ and DEF); assay type: biochemical; conditions: recombinant human CYP (Cypex bactosomes)
T2 construct: purchased Cypex; host or cells: bactosomes (bacterial membranes)
Experimental: The assay was designed to evaluate inhibition on cytochrome P450 (CYP) 3A4, 2C9, 2C19, 1A2 and 2D6 enzymes from bactosomes source using fluorogenic substrates. Compound (compound of Formula (I) or Comparator Compound) was dissolved in methanol at 1.65 mM. Daughter solutions were prepared in methanol at 660, 264, 106, 42, 17, 6.8, 2.7, 1.1 and 0.43 μM. NADPH cofactor was prepared with Glucose-6-phosphate (7.8 mg), Glucose-6-phosphate dehydrogenase (6 units), NADP (1.7 mg) per 1 mL in NaHCO3 2%. Substrate preparation was as follows: • 7-Methoxy-4-triFluoromethyl Coumarin-3-Acetic acid ethyl ester (FCA): 12.5 mM in acetonitrile • EthoxyResorufin (ER): 0.05 mM in acetonitrile • 4-MethylaminoMethyl-7-Methoxy Coumarin (MMC): 2.5 mM in methanol • 3-Butyryl-7Methoxy Coumarin (BMC): 2.5 mM in DMSO • 7-BenzyloxyQuinoline (7BQ): 2.5 mM in acetonitrile • DiEthoxyFluorescein (DEF): 0.1 mM in acetonitrile Bactosomes (Cypex source) at the concentration of 10 mg of protein per ml were diluted in phosphate buffer 50 mM pH7.4: • 0.33 ml of bactosomes CYP2C9 with 23.8 ml of buffer and 0.11 ml of FCA • 0.33 ml of bactosomes CYP1A2 with 23.6 ml of buffer and 0.275 ml of ER • 0.33 ml of bactosomes CYP2D6 with 23.8 ml of buffer and 0.11 ml of MMC • 0.33 ml of bactosomes CYP2C19 with 23.8 ml of buffer and 0.11 ml of BMC • 0.33 ml of bactosomes CYP3[…] with 23.6 ml of buffer and 0.275 ml of 7BQ • 0.33 ml of bactosomes CYP3[…] with 23.6 ml of buffer and 0.275 ml of DEF Pre-Incubation consisted in mixing 5 μl of compound solution with 220 μl diluted bactosomes and warming it at 37° C. for 10 min. Incubation was started with the addition of 25 μl of NADPH. Then fluorescence of substrate metabolite was read in a SAFIRE instrument (from Tecan) for 5 min: • FCA (2C9): Excitation at 410 nm and Emission at 510 nm • ER (1A2): Excitation at 530 nm and Emission at 590 nm • MMC (2D6): Excitation at 410 nm and Emission at 485 nm • BMC (2C19): Excitation at 410 nm and Emission at 465 nm • 7BQ (3A4H): Excitation at 410 nm and Emission at 530 nm • DEF (3A4L): Excitation at 485 nm and Emission at 530 nm Plotting of inhibition of substrate production against compound concentration allowed the determination of IC50 values.

[2] = Physical stability (hydrolysis) in phosphate buffer at various pHs; assay type: physicochemical; conditions: acidic environment (pH less than 7.0), room temperature
Experimental: The assay was designed for determining physical stability of compound in buffer at various pHs. Compound of Formula (I) was dissolved in DMSO at 1 mg/ml. Phosphate buffer (PBS) was prepared by mixing K2HPO4 50 mM and KH2PO4 50 mM solutions to obtain 4 buffers at pH 6.0, 7.0, 7.5, 8.0.
Stability studies were conducted at room temperature, and were started by the addition of 8 μl of DMSO solution to 792 μl of PBS 50 mM at pH 6.0, 7.0, 7.5 or 8.0 (1% DMSO). 75 μl of mixture was taken at 0, 1, 2, 4 and 24 h and 225 μl acetonitrile containing internal standard was added.
as §3, with “2” for “After 10 min centrifugation at 4000 rpm, 2”, “eluted with” for “eluted on”, “μm) and” for “μm)”, “following elution” for “following”, “2 min” for “2 minute elution”
Samples were analysed by Mass Spectrometry with an electrospray source and in positive mode and with following mass transitions: • Compound of Formula (I): 657 to 384 • Monoester of CPHPC: 499 to 226 • CPHPC: 341 to 226

CYP2D6 = target: T3, CYP2D6 (Homo sapiens, UniProt P10635); assay: Cytochrome p450 inhibition assay (bactosomes, fluorogenic substrate MMC); assay type: biochemical; conditions: recombinant human CYP (Cypex bactosomes)
T3 construct: purchased Cypex; host or cells: bactosomes (bacterial membranes)
Experimental: as §1

CYP2C9 = target: T4, CYP2C9 (Homo sapiens, UniProt P11712); assay: Cytochrome p450 inhibition assay (bactosomes, fluorogenic substrate FCA); assay type: biochemical; conditions: recombinant human CYP (Cypex bactosomes)
T4 construct: purchased Cypex; host or cells: bactosomes (bacterial membranes)
Experimental: as §1

CYP2C19 = target: T5, CYP2C19 (Homo sapiens, UniProt P33261); assay: Cytochrome p450 inhibition assay (bactosomes, fluorogenic substrate BMC); assay type: biochemical; conditions: recombinant human CYP (Cypex bactosomes)
T5 construct: purchased Cypex; host or cells: bactosomes (bacterial membranes)
Experimental: as §1

[3] = Solubility in aqueous media; assay type: physicochemical; conditions: for solubility at 4 h: thermodynamic from solid, read-out: Solubility at 4 hour timepoint
Experimental: A known quantity of the compound of Formula (I) was weighed into a suitable vessel (e.g. a screw capped clear glass vial) and a known volume of the required media added (e.g. Simulated Gastric Fluid pH 1.6[SGF], Simulated Fed State Intestinal Fluid pH 6.5 [FeSSIF], Simulated Fasted State Intestinal Fluid pH 6.5 [FaSSIF], Water [Purified Water], or Britton-Robinson buffer). The compound was wetted with the media by vortex mixing for 30 seconds to 1 minute. The sample was then visually observed to ensure that undissolved solid remained present. The sample was transferred to a gentle mixer (such as a roller mixer) and allowed to agitate until the desired time point was reached. At appropriate times the sample was reassessed visually. If all the solid had dissolved the solubility was recorded as >x mg/ml where x is the known weight used divided by the volume added. If undissolved solid remained a portion of the sample was taken and centrifuged to remove the solid leaving a clear supernatant. The supernatant was diluted volumetrically with a suitable diluent to provide an analytical sample of suitable concentration for analysis. This diluted sample was then analysed by a suitable method such as HPLC against a standard(s) of known concentration. The solubility of the compound can then be calculated using a knowledge of the concentration of the standard, the relative response (e.g. peak areas) of the standard and the analytical sample described, and the dilution of the analytical sample.

[4] = Liver microsomal stability; assay type: in vitro ADME
Experimental: as §2
Pre-Incubation consisted of warming microsomal solution 395 μl with 100 μl NaHCO3 (2%) at 37° C. for 7 min. Incubation was started with the addition of 5 μl of daughter solution. 50 μl aliquots of mixture were taken at 0, 3, 6, 12 and 30 min and quenched with 150 μl acetonitrile containing internal standard.
as §3
Samples were analysed by Mass Spectrometry with an electrospray source, in positive mode and with following mass transitions: • Compound of Formula (I): 657 to 384 • Monoester of CPHPC: 499 to 226 • CPHPC: 341 to 226 […]
In vitro liver microsomal activity of was assessed using the protocol detailed above (Intestine and Liver Microsomal Assay protocol).

[5] = substrate 7BQ, read-out: IC50 CYP3A4 (7BQ)
[6] = substrate DEF, read-out: IC50 CYP3A4 (DEF)

T2 sequence (P08684 whole entry): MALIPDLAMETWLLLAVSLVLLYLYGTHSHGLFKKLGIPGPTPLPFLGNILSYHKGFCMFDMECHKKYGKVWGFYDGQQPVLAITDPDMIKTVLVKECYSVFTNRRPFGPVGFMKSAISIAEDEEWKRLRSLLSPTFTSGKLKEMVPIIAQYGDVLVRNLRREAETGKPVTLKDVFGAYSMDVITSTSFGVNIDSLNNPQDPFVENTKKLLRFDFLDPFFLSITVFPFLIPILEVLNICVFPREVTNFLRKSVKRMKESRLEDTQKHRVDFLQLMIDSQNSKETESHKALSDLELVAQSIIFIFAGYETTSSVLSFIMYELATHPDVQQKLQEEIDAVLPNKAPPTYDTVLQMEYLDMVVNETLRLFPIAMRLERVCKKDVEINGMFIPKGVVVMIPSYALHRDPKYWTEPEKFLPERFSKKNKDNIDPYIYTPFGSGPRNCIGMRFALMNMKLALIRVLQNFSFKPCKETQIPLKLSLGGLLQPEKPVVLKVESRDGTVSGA
T4 sequence (P11712 whole entry): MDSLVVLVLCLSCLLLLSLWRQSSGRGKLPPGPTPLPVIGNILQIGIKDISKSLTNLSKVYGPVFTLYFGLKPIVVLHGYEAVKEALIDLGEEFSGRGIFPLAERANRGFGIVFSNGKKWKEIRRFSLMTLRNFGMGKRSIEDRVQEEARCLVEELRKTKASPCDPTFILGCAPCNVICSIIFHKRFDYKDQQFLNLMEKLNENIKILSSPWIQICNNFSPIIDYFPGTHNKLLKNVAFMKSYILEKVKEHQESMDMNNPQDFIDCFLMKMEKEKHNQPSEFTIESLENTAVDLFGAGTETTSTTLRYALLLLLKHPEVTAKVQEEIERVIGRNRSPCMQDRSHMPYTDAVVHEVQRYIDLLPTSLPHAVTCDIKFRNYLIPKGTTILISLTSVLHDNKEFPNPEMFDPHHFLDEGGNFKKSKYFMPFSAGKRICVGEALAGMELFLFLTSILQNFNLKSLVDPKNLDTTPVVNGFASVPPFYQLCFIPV
T5 sequence (P33261 whole entry): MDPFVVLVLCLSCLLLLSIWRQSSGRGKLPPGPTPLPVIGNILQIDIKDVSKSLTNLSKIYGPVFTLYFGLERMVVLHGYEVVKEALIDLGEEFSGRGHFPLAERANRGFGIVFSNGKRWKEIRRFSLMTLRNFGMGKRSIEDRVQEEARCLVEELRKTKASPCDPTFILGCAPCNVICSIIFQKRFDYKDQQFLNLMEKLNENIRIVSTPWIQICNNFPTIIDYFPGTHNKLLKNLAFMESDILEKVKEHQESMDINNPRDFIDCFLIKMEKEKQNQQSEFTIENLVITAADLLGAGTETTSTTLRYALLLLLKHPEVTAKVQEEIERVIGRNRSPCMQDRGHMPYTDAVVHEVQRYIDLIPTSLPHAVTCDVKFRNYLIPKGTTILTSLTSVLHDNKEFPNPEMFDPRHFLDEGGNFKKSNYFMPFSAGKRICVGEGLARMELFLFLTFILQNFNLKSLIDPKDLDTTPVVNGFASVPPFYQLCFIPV
T3 sequence (P10635 whole entry): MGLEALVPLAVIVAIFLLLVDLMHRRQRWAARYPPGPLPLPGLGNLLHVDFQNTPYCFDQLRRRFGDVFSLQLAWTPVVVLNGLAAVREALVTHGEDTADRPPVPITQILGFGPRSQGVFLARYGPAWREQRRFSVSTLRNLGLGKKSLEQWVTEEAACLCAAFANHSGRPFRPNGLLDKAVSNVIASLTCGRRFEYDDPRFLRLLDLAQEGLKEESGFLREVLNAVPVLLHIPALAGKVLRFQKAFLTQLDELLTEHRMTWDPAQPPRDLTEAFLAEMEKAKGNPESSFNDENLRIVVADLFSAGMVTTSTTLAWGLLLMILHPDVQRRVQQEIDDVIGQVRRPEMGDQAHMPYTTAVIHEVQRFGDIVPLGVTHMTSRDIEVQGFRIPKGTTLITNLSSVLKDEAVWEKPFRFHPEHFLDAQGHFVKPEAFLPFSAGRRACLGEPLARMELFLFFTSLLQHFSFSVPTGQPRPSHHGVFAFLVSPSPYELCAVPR

Question: Which IC50 (CYP1A2) does the source give for `O=C(OCOC(=O)[C@H]1CCCN1C(=O)CCCCC(=O)N1CCC[C@@H]1C(=O)OCOC(=O)OC1CCOCC1)OC1CCOCC1` [Compound of Formula (I), (2R,2′R)-Bis(((((tetrahydro-2H-pyran-4-yl)oxy)carbonyl)oxy)methyl) 1,1′-adipoylbis(pyrrolidine-2-carboxylate)] here?
Answer: > 33 µM

Question: And the “Rate of hydrolysis in human intestinal microsomes” value [1]?
Answer: low rate of hydrolysis

Question: And the IC50 (CYP3A4; [5])?
Answer: > 33 µM

Question: What about the IC50 (CYP3A4; [6]) of the same compound?
Answer: > 33 µM

Question: And the “Compound hydrolysed after 24 h” value [2]?
Answer: Less than 20%

Question: And the IC50 (CYP2D6)?
Answer: > 33 µM

Question: What about the IC50 (CYP2C9) of the same compound?
Answer: > 33 µM

Question: And the IC50 (CYP2C19)?
Answer: > 33 µM

Question: What about the “Solubility in biologically relevant media” value ([3]; biologically relevant media) of the same compound?
Answer: highly soluble

Question: What about the solubility at 4 h ([3]; FaSSIF (Simulated Fasted State Intestinal Fluid pH 6.5)) of the same compound?
Answer: 4400 µg/mL

Question: What about the solubility at 4 h ([3]; FeSSIF (Simulated Fed State Intestinal Fluid pH 6.5)) of the same compound?
Answer: 5000 µg/mL

Question: And the solubility at 4 h ([3]; SGF (Simulated Gastric Fluid pH 1.6))?
Answer: 5200 µg/mL

Question: What about the solubility at 4 h ([3]; water (purified water), Water) of the same compound?
Answer: 5500 µg/mL

Question: And the “Rate of hydrolysis to CPHPC in human liver microsomes” value [4]?
Answer: high rate of hydrolysis

Question: With `O=C(OCOC(=O)[C@H]1CCCN1C(=O)CCCCC(=O)N1CCC[C@@H]1C(=O)O)OC1CCOCC1` [mono-ester derivative, (R)-1-(6-oxo-6-((R)-2-((((((tetrahydro-2H-pyran-4-yl)oxy)carbonyl)oxy)methoxy)carbonyl)pyrrolidin-1-yl)hexanoyl)pyrrolidine-2-carboxylic acid] as the compound, how does the IC50 (CYP1A2) read?
Answer: > 33 µM

Question: What about the IC50 (CYP3A4; [5]) of the same compound?
Answer: > 33 µM

Question: What about the IC50 (CYP3A4; [6]) of the same compound?
Answer: > 33 µM

Question: And the IC50 (CYP2D6)?
Answer: > 33 µM

Question: And the IC50 (CYP2C9)?
Answer: > 33 µM

Question: What about the IC50 (CYP2C19) of the same compound?
Answer: > 33 µM
